The text below walks through data of patent publication US4332794A, “6"-Deoxydibekacin, 4",6"-dideoxydibekacin and 1-N-aminoacyl derivatives thereof, and the production of these new compounds” (Zaidan Hojin Biseibutsu Kagaku Kenkyu Kai, priority 1979, dated 1982).

Data set [1] in a line: oto-toxicity. The following applies: compounds of this invention.
Data set [2] has as its system Bacillus subtilis NRRL B-558. Put plainly: MIC, serial dilution on nutrient agar. In kind it is cell-based. The following applies: NRRLB558, 37° C., 18 hours.
The test system of data set [3] is Escherichia coli K-12. Put plainly: MIC, serial dilution on nutrient agar. It is filed as cell-based.
Data set [4] relates to Escherichia coli K-12 LA 290 R56. Put plainly: microbe, parasite or virus in culture. The following applies: K12LA290R56, 18 h. It is filed as cell-based.
The test system of data set [5] is Staphylococcus aureus Smith. Put plainly: MIC, serial dilution on nutrient agar. In kind it is cell-based. The settings on record: 37° C., 18 hours.
The test system of data set [6] is Pseudomonas aeruginosa K-Ps102. Put plainly: MIC, serial dilution on nutrient agar. In kind it is cell-based.
In data set [7] the test system is Mycobacterium smegmatis ATCC 607. Put plainly: MIC, serial dilution on nutrient agar. It is filed as cell-based. The following applies: Mycolicibacterium smegmatis.
For data set [8], the system named is Klebsiella pneumoniae 22 #3038. Put plainly: MIC, serial dilution on nutrient agar. It is filed as cell-based.
Data set [9] relates to Pseudomonas aeruginosa H11. Put plainly: MIC, serial dilution on nutrient agar. It is filed as cell-based.
Data set [10] relates to Escherichia coli NIHJ. Put plainly: MIC, serial dilution on nutrient agar. In kind it is cell-based.
In data set [11] the test system is Staphylococcus aureus APO1. Put plainly: MIC, serial dilution on nutrient agar. It is filed as cell-based.
The test system of data set [12] is Escherichia coli K-12 ML 1410. Kind of data set: MIC, serial dilution on nutrient agar. It is filed as cell-based.
Data set [13] relates to Escherichia coli JR66/W677. Kind of data set: MIC, serial dilution on nutrient agar. It is filed as cell-based.
Data set [14] relates to Shigella dysenteriae JS11910. Kind of data set: MIC, serial dilution on nutrient agar. In kind it is cell-based. The following applies: JS11910, 18 h.
Data set [15] relates to Bacillus anthracis. Put plainly: microbe, parasite or virus in culture. The settings on record: 18 h. It is filed as cell-based.
Data set [16] has as its system Pseudomonas aeruginosa H9. Put plainly: MIC, serial dilution on nutrient agar. In kind it is cell-based.
Data set [17] has as its system Escherichia coli K-12 LA 290 R64. Kind of data set: MIC, serial dilution on nutrient agar. In kind it is cell-based. The following applies: K12LA290R64, 18 h.
Data set [18] deals with Pseudomonas aeruginosa B-13. Put plainly: MIC, serial dilution on nutrient agar. It is filed as cell-based.
In data set [19] the test system is kanamycin-sensitive bacteria and various kanamycin-resistant bacteria. The following applies: prior art; cited from earlier work.
Data set [20] deals with kanamycin-sensitive and resistant bacteria. Put plainly: antibacterial activity compared to dibekacin. In kind it is cell-based. On the procedure: The minimum inhibitory concentrations (mcg/ml) of 6"-deoxydibekacin (abbreviated as 6"-DDKB), 4",6"-dideoxydibekacin (abbreviated as 4",6"-DDKB), 1-N-(L-4-amino-2-hydroxybutyryl)-6"-deoxydibekacin (abbreviated as AHB-6"-DDKB) and 1-N-(L-4-amino-2-hydroxybutyryl)-4",6"-dideoxydibekacin (abbreviated as AHB-4",6"-DDKB) of this invention against various microorganisms were determined according to serial dilution method on a nutrient agar medium at 37° C., the estimation being made after 18 hours incubation. For comparison purpose, the minimum inhibitory concentrations of dibekacin (abbreviated as DKB) were also determined in the same manner as stated above.

[21] abbreviates: KPS102, nutrient agar, 37° C., 18 hours, read-out: MIC.
The mark [22] stands for this setting: nutrient agar, 37° C., 18 hours, read-out: MIC.
The mark [23] stands for this setting: K12ML1410, nutrient agar, 37° C., 18 hours, read-out: MIC.
Setting [24] is: B13, nutrient agar, 37° C., 18 hours, read-out: MIC.
Where [25] appears, read: H11, nutrient agar, 37° C., 18 hours, read-out: MIC.

Converted amounts (≈) assume the structure as drawn. Read-outs that look alike come from different tables or passages of the source.

`C[C@H]1O[C@H](O[C@@H]2[C@@H](O)[C@H](O[C@H]3O[C@H](CN)CC[C@H]3N)[C@@H](N)C[C@H]2NC(=O)[C@@H](O)CCN)[C@H](O)[C@@H](N)[C@@H]1O` [AHB-6"-DDKB, 1-N-(L-4-amino-2-hydroxybutyryl)-6"-deoxydibekacin]: the oto-toxicity entry in data set [1] was “low oto-toxicity”. Moreover, the MIC is below 0.2 µg/mL in [2]; 1.56 µg/mL (≈ 2.91 µM) in data set [3] (K12, 18 h); 1.56 µg/mL (≈ 2.91 µM) in data set [4]; below 0.2 µg/mL in data set [5]; 12.5 µg/mL (≈ 23.3 µM) in data set [6] (setting [21]); 0.39 µg/mL (≈ 0.727 µM) in [7] (ATCC607, 18 h). For the same compound, the MIC in data set [8] (setting [22]) came to 3.13 µg/mL (≈ 5.83 µM); in data set [9] (H11, 18 h) it was 50 µg/mL (≈ 93.2 µM); in data set [10] (18 h), 1.56 µg/mL (≈ 2.91 µM); in data set [11] (APO1, 18 h), 1.56 µg/mL (≈ 2.91 µM); in data set [12] (setting [23]), 3.13 µg/mL (≈ 5.83 µM); in [13] (JR66/W677, nutrient agar, 37° C., 18 hours, read-out: MIC), 3.13 µg/mL (≈ 5.83 µM). The MIC came out at 6.25 µg/mL (≈ 11.6 µM) in [14]; 0.2 µg/mL (≈ 0.373 µM) in data set [15]; 6.25 µg/mL (≈ 11.6 µM) in data set [16] (H9, 18 h); 1.56 µg/mL (≈ 2.91 µM) in data set [17]; 25 µg/mL (≈ 46.6 µM) in data set [18] (setting [24]).

With `NC[C@@H]1CC[C@@H](N)[C@@H](O[C@H]2[C@H](O)[C@@H](O[C@H]3O[C@H](CO)[C@@H](O)[C@H](N)[C@H]3O)[C@H](N)C[C@@H]2N)O1` [DKB, 3',4'-dideoxykanamycin B, reference compound], the MIC in data set [2] was below 0.2 µg/mL; in data set [3] (K12, nutrient agar, 37° C., 18 hours, read-out: MIC), 1.56 µg/mL (≈ 3.45 µM); in data set [4], 25 µg/mL (≈ 55.4 µM); in data set [5] it was below 0.2 µg/mL; in data set [6] (KPS102, 18 h), 6.25 µg/mL (≈ 13.8 µM); in [7] (ATCC607, nutrient agar, 37° C., 18 hours, read-out: MIC), 1.56 µg/mL (≈ 3.45 µM). Besides, the MIC stood at 100 µg/mL (≈ 221 µM) in data set [8] (18 h); 12.5 µg/mL (≈ 27.7 µM) in data set [9] (setting [25]); 1.56 µg/mL (≈ 3.45 µM) in data set [10] (setting [22]); 1.56 µg/mL (≈ 3.45 µM) in data set [11] (APO1, nutrient agar, 37° C., 18 hours, read-out: MIC); 1.56 µg/mL (≈ 3.45 µM) in data set [12] (setting [23]); 100 µg/mL (≈ 221 µM) in data set [13] (JR66/W677, 18 h). For the same compound, the MIC in data set [14] is 3.13 µg/mL (≈ 6.93 µM); in data set [15], below 0.2 µg/mL; in data set [16] (H9, 18 h), 6.25 µg/mL (≈ 13.8 µM); in data set [17], 25 µg/mL (≈ 55.4 µM); in data set [18] (B13, 18 h), 6.25 µg/mL (≈ 13.8 µM). In addition, in [19], the antibacterial activity result was “active against the kanamycin-sensitive bacteria and also against various kanamycin-resistant bacteria”.

Regarding `C[C@H]1O[C@H](O[C@@H]2[C@@H](O)[C@H](O[C@H]3O[C@H](CN)CC[C@H]3N)[C@@H](N)C[C@H]2N)[C@H](O)[C@@H](N)[C@@H]1O` [6"-DDKB, 6"-deoxydibekacin], the oto-toxicity entry in data set [1] was “low oto-toxicity”. Also, the MIC was below 0.2 µg/mL in [2]; 1.56 µg/mL (≈ 3.58 µM) in data set [3] (K12, 18 h); 25 µg/mL (≈ 57.4 µM) in data set [4]; below 0.2 µg/mL in data set [5]; 6.25 µg/mL (≈ 14.4 µM) in [6] (setting [21]); 0.78 µg/mL (≈ 1.79 µM) in data set [7] (ATCC607, 18 h). Further, the MIC was found to be 100 µg/mL (≈ 230 µM) in data set [8] (18 h); 12.5 µg/mL (≈ 28.7 µM) in data set [9] (setting [25]); 1.56 µg/mL (≈ 3.58 µM) in [10] (18 h); 3.13 µg/mL (≈ 7.19 µM) in data set [11] (APO1, 18 h); 3.13 µg/mL (≈ 7.19 µM) in data set [12] (K12ML1410, 18 h); 100 µg/mL (≈ 230 µM) in [13] (JR66/W677, 18 h). Further, the MIC in data set [14] is 3.13 µg/mL (≈ 7.19 µM); in data set [15], 0.39 µg/mL (≈ 0.895 µM); in data set [16] (H9, nutrient agar, 37° C., 18 hours, read-out: MIC), 12.5 µg/mL (≈ 28.7 µM); in data set [17] it was 25 µg/mL (≈ 57.4 µM); in data set [18] (B13, 18 h), 50 µg/mL (≈ 115 µM). The “antibacterial activity compared to dibekacin (DKB)” value in data set [20] was “same or more active”.

As to `C[C@@H]1C[C@H](N)[C@@H](O)[C@@H](O[C@@H]2[C@@H](O)[C@H](O[C@H]3O[C@H](CN)CC[C@H]3N)[C@@H](N)C[C@H]2N)O1` [4",6"-DDKB, 4",6"-dideoxydibekacin], the oto-toxicity result in [1] is “low oto-toxicity”. The MIC was below 0.2 µg/mL in [2]; 1.56 µg/mL (≈ 3.72 µM) in data set [3] (K12, 18 h); 50 µg/mL (≈ 119 µM) in data set [4]; below 0.2 µg/mL in data set [5]; 25 µg/mL (≈ 59.6 µM) in data set [6] (setting [21]); 1.56 µg/mL (≈ 3.72 µM) in [7] (ATCC607, 18 h). Also, the MIC is 100 µg/mL (≈ 238 µM) in data set [8] (18 h); 100 µg/mL (≈ 238 µM) in [9] (H11, 18 h); 1.56 µg/mL (≈ 3.72 µM) in [10] (18 h); 3.13 µg/mL (≈ 7.46 µM) in data set [11] (APO1, 18 h); 1.56 µg/mL (≈ 3.72 µM) in [12] (K12ML1410, 18 h); 100 µg/mL (≈ 238 µM) in data set [13] (JR66/W677, 18 h). Moreover, the MIC was 3.13 µg/mL (≈ 7.46 µM) in [14]; below 0.2 µg/mL in data set [15]; 100 µg/mL (≈ 238 µM) in [16] (H9, 18 h); 25 µg/mL (≈ 59.6 µM) in [17]; above 100 µg/mL in [18] (B13, 18 h). Moreover, the “antibacterial activity compared to dibekacin (DKB)” value in data set [20] is “same or more active”.

For the compound `C[C@@H]1C[C@H](N)[C@@H](O)[C@@H](O[C@@H]2[C@@H](O)[C@H](O[C@H]3O[C@H](CN)CC[C@H]3N)[C@@H](N)C[C@H]2NC(=O)[C@@H](O)CCN)O1` [AHB-4",6"-DDKB, 1-N-(L-4-amino-2-hydroxybutyryl)-4",6"-dideoxydibekacin], in [1], the oto-toxicity result is recorded as “low oto-toxicity”. Further, the MIC in [2] was below 0.2 µg/mL; in data set [3] (K12, 18 h), 1.56 µg/mL (≈ 3 µM); in data set [4], 1.56 µg/mL (≈ 3 µM); in data set [5] it was below 0.2 µg/mL; in data set [6] (setting [21]), 12.5 µg/mL (≈ 24 µM); in data set [7] (ATCC607, 18 h), 0.39 µg/mL (≈ 0.749 µM). For the same compound, the MIC was 3.13 µg/mL (≈ 6.01 µM) in data set [8] (18 h); 50 µg/mL (≈ 96 µM) in data set [9] (H11, 18 h); 1.56 µg/mL (≈ 3 µM) in data set [10] (18 h); 1.56 µg/mL (≈ 3 µM) in data set [11] (APO1, 18 h); 1.56 µg/mL (≈ 3 µM) in data set [12] (K12ML1410, 18 h); 3.13 µg/mL (≈ 6.01 µM) in data set [13] (JR66/W677, 18 h). Also, the MIC in data set [14] was 3.13 µg/mL (≈ 6.01 µM); in data set [15], below 0.2 µg/mL; in data set [16] (H9, 18 h), 6.25 µg/mL (≈ 12 µM); in data set [17], 0.78 µg/mL (≈ 1.5 µM); in [18] (setting [24]), 12.5 µg/mL (≈ 24 µM).
